Measurements as given in ChEMBL document CHEMBL5143529, “Design, synthesis, and biological evaluation of novel (4-(1,2,4-oxadiazol-5-yl)phenyl)-2-aminoacetamide derivatives as multifunctional agents for the treatment of Alzheimer's disease” (Eur J Med Chem, 2022).
Activity calls are given as the source filed them. The rule behind the calls is not given here.

How the values were obtained:
Acetylcholinesterase = Acetylcholinesterase (Electrophorus electricus, UniProt O42275); assay: Inhibition of electric eel AChE using acetylthiocholine iodide as substrate preincubated for 20 mins followed by substrate addition and measured after 5 mins by DTNB-reagent based Ellman's method
[1] = biological target: Cholinesterase (Equus caballus) (UniProt P81908); assay: Mixed type inhibition of equine serum BuChE assessed as decrease in Vmax with increase in Km at 0.5 to 2 uM using varying level of butyrylthiocholine iodide as substrate by Lineweaver-Burk plot double reciprocal analysis; settings: dose 0.5-2 µM
Cholinesterase [2] = biological target: T1, Cholinesterase (Equus caballus, UniProt P81908); assay: Mixed type inhibition of equine serum BuChE assessed as inhibition constant using varying level of butyrylthiocholine iodide as substrate by Lineweaver-Burk plot double reciprocal analysis
PC-12 [3] = assay: Neuroprotective activity against H202-induced cell death in rat PC-12 cells assessed as cell viability at 5 uM pretreated for 3 hrs followed by H2O2 stimulation and measured after 24 hrs by MTT assay relative to control; type: functional; settings: time 27 hrs, read-out: Activity
PC-12 [4] = assay: Neuroprotective activity against H202-induced cell death in rat PC-12 cells assessed as cell viability at 20 uM pretreated for 3 hrs followed by H2O2 stimulation and measured after 24 hrs by MTT assay relative to control; type: functional; settings: time 27 hrs, read-out: Activity
[5] = Cytotoxicity against rat PC-12 cells assessed as cell viability at 25 uM incubated for 24 hrs by MTT assay relative to control; type: toxicity, cell-based; settings: read-out: Activity
[6] = Cytotoxicity against rat PC-12 cells assessed as cell viability at 50 uM incubated for 24 hrs by MTT assay relative to control; type: toxicity, cell-based; settings: read-out: Activity
[7] = biological target: Amyloid-beta precursor protein (Homo sapiens) (UniProt P05067); assay: Inhibition of amyloid beta (1 to 42 ) (unknown origin) self aggregation at 100 uM measured after 48 hrs by transmission electron microscopic analysis
[8] = Inhibition of LPS-induced IL-1beta secretion in mouse BV-2 cells preincubated for 1 hr followed by LPS stimulation and measured after 24 hrs by ELISA; type: functional, cell-based
[9] = Inhibition of LPS-induced TNF-alpha secretion in mouse BV-2 cells preincubated for 1 hr followed by LPS stimulation and measured after 24 hrs by ELISA; type: functional, cell-based
BV-2 [10] = assay: Downregulation of COX-2 protein expression in LPS-stimulated mouse BV-2 cells preincubated for 1 hr followed by LPS stimulation and measured after 24 hrs by Western blot analysis; type: functional, cell-based; settings: dose 1-10 µM, time 25.0 hrs, DDE = dose-dependent effect
BV-2 [11] = assay: Downregulation of iNOS protein expression in LPS-stimulated mouse BV-2 cells preincubated for 1 hr followed by LPS stimulation and measured after 24 hrs by Western blot analysis; type: functional, cell-based; settings: dose 1-10 µM, time 25.0 hrs, DDE = dose-dependent effect
[12] = biological target: T2, Inhibitor of nuclear factor kappa-B kinase subunit beta (Mus musculus) (UniProt O88351); assay: Inhibition of IkappaB activation in LPS-stimulated mouse BV-2 cells pretreated for 1 hr followed by LPS stimulation and measured after 24 hrs by Western blot analysis; type: cell-based; settings: dose 1-10 µM, time 25.0 hrs, DDE = dose-dependent effect
T2 sequence (whole entry): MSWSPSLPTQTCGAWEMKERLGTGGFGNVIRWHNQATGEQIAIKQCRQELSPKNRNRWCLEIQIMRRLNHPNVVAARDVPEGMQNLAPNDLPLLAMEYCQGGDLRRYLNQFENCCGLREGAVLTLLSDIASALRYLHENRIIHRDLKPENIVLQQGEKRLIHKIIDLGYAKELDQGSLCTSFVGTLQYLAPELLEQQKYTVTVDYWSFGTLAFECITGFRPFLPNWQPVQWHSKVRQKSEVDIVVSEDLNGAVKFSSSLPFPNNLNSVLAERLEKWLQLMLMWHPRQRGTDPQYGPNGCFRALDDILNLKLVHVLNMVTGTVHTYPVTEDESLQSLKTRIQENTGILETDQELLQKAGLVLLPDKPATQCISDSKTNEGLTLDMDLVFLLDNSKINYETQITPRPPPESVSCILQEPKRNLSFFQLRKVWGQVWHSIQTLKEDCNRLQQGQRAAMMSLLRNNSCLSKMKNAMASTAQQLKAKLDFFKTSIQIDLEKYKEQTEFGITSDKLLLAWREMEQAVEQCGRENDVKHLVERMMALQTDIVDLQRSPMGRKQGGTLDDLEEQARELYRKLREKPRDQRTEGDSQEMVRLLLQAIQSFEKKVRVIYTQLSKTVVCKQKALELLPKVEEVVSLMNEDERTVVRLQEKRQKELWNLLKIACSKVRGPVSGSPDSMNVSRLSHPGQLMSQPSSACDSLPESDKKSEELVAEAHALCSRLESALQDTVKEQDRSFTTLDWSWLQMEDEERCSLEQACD

[13] = biological target: T2, Inhibitor of nuclear factor kappa-B kinase subunit beta (Mus musculus); assay: Inhibition of IkappaB phosphorylation in LPS-stimulated mouse BV-2 cells pretreated for 1 hr followed by LPS stimulation and measured after 24 hrs by Western blot analysis; type: cell-based; settings: dose 1-10 µM, time 25.0 hrs, DDE = dose-dependent effect
[14] = biological target: Transcription factor p65 (Mus musculus) (UniProt Q04207); assay: Inhibition of p65 phosphorylation in LPS-stimulated mouse BV-2 cells at 1 to 10 uM pretreated for 1 hr followed by LPS stimulation and measured after 24 hrs by Western blot analysis; type: cell-based; settings: dose 1-10 µM, time 25.0 hrs
BV-2 [15] = assay: Inhibition of NF-kappaB in LPS-stimulated mouse BV-2 cells assessed as reduction in translocation of p65 NF-kappaB from cytoplasm to nucleus at 1 to 10 uM pretreated for 1 hr followed by LPS stimulation and measured after 24 hrs; type: cell-based; settings: dose 1-10 µM, time 25.0 hrs
PC-12 [16] = assay: Inhibition of H2O2-induced ROS production in rat PC-12 cells assessed as reduction in ROS accumulation at 1 to 50 uM pretreated for 6 hrs followed by H2O2 stimulation and measured after 18 hrs by DCFH-DA staining based fluorescence assay; type: functional, cell-based; settings: dose 1-50 µM, time 24.0 hrs
SH-SY5Y = assay: Inhibition of H2O2-induced ROS production in human SH-SY5Y cells assessed as reduction in ROS accumulation at 1 to 50 uM pretreated for 6 hrs followed by H2O2 stimulation and measured after 18 hrs by DCFH-DA staining based fluorescence assay; type: functional, cell-based; settings: dose 1-50 µM, time 24.0 hrs
[17] = Antioxidant activity assessed as DPPH radical scavenging activity at 10 uM incubated for 2 hrs under dark condition by microplate reader method relative to control; type: functional
[18] = Antioxidant activity assessed as DPPH radical scavenging activity at 1000 uM incubated for 2 hrs under dark condition by microplate reader method relative to control; type: functional
[19] = Metal chelating activity assessed as Cu2+-compound complex formation by measuring reduction in maximum absorbance intensity at 20 uM incubated for 1 hr by UV-visible spectrophotometry
[20] = Toxicity in C57BL/6 mouse assessed as median lethal dose administered intragastrically for 7 days; settings: in vivo, po, time 7 day
[21] = Toxicity in C57BL/6 mouse assessed as abnormal fluctuations in body weight at 10 to 30 mg/kg, IG measured after 7 days; type: organism-based; settings: in vivo, po, 168 h, dose 10-30 mg/kg, time 7 day
[22] = Toxicity in C57BL/6 mouse model of scopolamine-induced Alzheimer's disease assessed as changes in swimming speed at 10 to 30 mg/kg, IG measured after 7 days; type: organism-based; settings: in vivo, po, 168 h, dose 10-30 mg/kg, time 7 day
Mus musculus [23] = assay: Anti-alzheimer activity against scopolamine-induced cognitive dysfunction C57BL/6 mouse model assessed as reduction in escape latency time administered intragastrically for 7 days followed by scopolamine stimulation and measured after 4 days by Morris water maze test; type: functional, organism-based; settings: dose 10-30 mg/kg, route ig, time 11.0 day, DDE = dose-dependent effect
Mus musculus [24] = assay: Anti-alzheimer activity against scopolamine-induced cognitive dysfunction C57BL/6 mouse model assessed as improvement in cognitive impairment by measuring increase in number of platform crossing at 30 mg/kg, IG administered for 7 days followed by scopolamine stimulation and measured after 4 days by Morris water maze test; type: functional, organism-based; settings: time 11.0 day
Cholinesterase [25] = biological target: T1, Cholinesterase
Description: Inhibition of equine serum BuChE using butyrylthiocholine iodide as substrate preincubated for 20 mins followed by substrate addition and measured after 5 mins by DTNB-reagent based Ellman's method

cells = settings: Mus musculus, BV-2
Description: Inhibition of NO production in LPS-induced mouse BV-2 cells pretreated for 1 hr followed by LPS stimulation and measured after 24 hrs by ELISA

in vitro [26] = settings: dog, MDCK-MDR1
Description: Apparent permeability across apical to basolateral side in MDCKII-MDR1 cells at 75 uM incubated for 2 hrs

in vitro [27] = settings: dog, MDCK-MDR1; remark: listed apart in the source
Description: Apparent permeability across basolateral to apical side in MDCKII-MDR1 cells at 75 uM incubated for 2 hrs

P-glycoprotein = assay: in vitro; settings: dog, MDCK-MDR1
Description: Substrate activity at P-glycoprotein in MDCKII-MDR1 cells assessed as efflux ratio apparent permeability across basolateral to apical side over apical to basolateral side at 75 uM incubated for 2 hrs

T1 sequence (P81908 whole entry): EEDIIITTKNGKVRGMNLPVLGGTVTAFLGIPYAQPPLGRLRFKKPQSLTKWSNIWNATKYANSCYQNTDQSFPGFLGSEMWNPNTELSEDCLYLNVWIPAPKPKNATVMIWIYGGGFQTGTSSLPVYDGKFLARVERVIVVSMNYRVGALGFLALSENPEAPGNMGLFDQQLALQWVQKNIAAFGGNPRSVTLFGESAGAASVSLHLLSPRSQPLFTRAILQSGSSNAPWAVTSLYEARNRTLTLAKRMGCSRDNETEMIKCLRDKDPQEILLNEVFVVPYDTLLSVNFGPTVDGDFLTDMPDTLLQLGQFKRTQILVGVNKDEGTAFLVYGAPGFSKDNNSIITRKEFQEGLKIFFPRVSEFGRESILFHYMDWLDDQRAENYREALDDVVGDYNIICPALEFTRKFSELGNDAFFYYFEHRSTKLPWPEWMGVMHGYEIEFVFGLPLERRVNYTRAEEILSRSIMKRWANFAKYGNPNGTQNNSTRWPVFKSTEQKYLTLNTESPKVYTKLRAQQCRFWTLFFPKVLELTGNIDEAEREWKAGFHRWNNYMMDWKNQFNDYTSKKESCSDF
Chain of Cholinesterase (Equus caballus) (P81908 whole entry): as above
Chain of Transcription factor p65 (Mus musculus) (Q04207 whole entry): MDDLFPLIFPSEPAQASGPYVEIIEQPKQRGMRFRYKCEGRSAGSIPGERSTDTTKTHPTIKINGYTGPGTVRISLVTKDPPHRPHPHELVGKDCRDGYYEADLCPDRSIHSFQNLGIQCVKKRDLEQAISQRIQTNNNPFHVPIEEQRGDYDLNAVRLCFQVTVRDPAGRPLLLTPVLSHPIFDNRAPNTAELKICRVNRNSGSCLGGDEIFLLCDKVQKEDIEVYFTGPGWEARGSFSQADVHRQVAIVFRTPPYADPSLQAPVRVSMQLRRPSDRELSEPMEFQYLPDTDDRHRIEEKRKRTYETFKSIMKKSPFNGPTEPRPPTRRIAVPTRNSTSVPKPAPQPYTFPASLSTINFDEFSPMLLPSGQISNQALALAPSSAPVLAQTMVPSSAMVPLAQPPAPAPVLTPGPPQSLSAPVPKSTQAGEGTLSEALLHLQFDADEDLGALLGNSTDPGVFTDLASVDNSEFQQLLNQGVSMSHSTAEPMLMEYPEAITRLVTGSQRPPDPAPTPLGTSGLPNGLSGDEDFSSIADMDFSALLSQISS
Chain of Amyloid-beta precursor protein (Homo sapiens) (P05067 whole entry): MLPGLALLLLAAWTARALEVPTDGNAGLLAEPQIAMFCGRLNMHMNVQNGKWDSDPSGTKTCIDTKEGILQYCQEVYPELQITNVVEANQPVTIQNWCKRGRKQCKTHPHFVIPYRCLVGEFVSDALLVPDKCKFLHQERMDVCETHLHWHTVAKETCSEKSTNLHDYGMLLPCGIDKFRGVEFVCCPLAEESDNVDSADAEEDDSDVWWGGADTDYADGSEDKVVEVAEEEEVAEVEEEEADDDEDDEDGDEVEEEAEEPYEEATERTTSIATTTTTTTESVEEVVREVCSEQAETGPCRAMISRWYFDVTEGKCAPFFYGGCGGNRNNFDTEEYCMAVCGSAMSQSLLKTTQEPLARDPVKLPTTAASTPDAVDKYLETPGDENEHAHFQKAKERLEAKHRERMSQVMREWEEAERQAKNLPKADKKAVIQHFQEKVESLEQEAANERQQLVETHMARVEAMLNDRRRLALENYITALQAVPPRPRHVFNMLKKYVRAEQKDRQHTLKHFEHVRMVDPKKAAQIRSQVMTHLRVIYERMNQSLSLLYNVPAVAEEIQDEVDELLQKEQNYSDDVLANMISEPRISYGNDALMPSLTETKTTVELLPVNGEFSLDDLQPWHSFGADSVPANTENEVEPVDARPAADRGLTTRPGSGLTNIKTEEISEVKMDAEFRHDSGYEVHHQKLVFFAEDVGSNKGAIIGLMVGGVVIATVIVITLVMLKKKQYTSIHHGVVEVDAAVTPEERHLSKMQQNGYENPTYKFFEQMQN
Chain of Acetylcholinesterase (O42275 whole entry): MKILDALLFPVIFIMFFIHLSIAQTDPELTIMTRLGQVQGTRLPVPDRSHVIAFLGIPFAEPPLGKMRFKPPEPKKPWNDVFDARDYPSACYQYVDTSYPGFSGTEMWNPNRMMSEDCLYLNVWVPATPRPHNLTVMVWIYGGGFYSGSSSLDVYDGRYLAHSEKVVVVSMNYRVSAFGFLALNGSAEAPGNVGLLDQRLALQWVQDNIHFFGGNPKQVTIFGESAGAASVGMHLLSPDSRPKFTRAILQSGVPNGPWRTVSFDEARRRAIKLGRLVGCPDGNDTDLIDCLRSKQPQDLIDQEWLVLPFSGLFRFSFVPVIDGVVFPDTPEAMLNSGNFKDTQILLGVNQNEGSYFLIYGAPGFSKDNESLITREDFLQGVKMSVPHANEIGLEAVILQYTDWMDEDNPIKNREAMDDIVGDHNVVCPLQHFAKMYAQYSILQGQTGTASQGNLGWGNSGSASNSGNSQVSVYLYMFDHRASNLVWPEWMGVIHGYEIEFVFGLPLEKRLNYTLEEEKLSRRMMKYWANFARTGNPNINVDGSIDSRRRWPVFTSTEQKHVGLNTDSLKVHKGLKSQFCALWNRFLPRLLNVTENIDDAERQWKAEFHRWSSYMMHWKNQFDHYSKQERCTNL

Q: Which results are given for O=C(CNc1ccc(F)cc1)Nc1ccc(-c2nc(-c3ccnc(Nc4ccc(OC(F)(F)F)cc4)c3)no2)cc1?
A: IC50 (Acetylcholinesterase): > 50 µM; inhibition [1]: Active; Ki (Cholinesterase [2]): 610 nM; viability at 5 µM (PC-12 [3]): 46.5%; viability at 20 µM (PC-12 [4]): 66.4%; viability at 24 h, 25 µM [5]: 99.7%; viability at 24 h, 50 µM [6]: 98.8%; inhibition [7]: Active; IC50 [8]: 1610 nM; IC50 [9]: 4.15 µM; Activity (BV-2 [10]): Dde; Activity (BV-2 [11]): Dde; inhibition [12]: Dde; inhibition [13]: Dde; inhibition [14]: Active; inhibition (BV-2 [15]): Active; inhibition (PC-12 [16]): Active; inhibition (SH-SY5Y): Active; Activity [17]: 86.1%; Activity [18]: 34.6%; Activity [19]: Active; LD50 at 168 h [20]: 75.4 mg/kg; Activity [21]: Non-Toxic; Activity [22]: Non-Toxic; Activity (Mus musculus [23]): Dde; Activity (Mus musculus [24]): Active; IC50 (Cholinesterase [25]): 1280 nM; IC50 (cells): 670 nM; Papp A→B at 2 h, 75 µM (in vitro [26]): 17.2 ×10⁻⁶ cm/s; Papp B→A at 2 h, 75 µM (in vitro [27]): 16.3 ×10⁻⁶ cm/s; efflux ratio at 2 h, 75 µM (P-glycoprotein): 0.95
